One compound from ChEMBL document CHEMBL1150937, “Aeruginosin 103-A, a thrombin inhibitor from the cyanobacterium Microcystis viridis” (J Nat Prod, 1998) can be followed below.

Structures are written as SMILES. pIC50: −log10 of the molar value. Values after ≈ are worked out from the molar mass of the structure shown.

One assay concerns the target Plasminogen (Homo sapiens, UniProt P00747). As to the kind of experiment: Inhibition of plasmin.
The nature of assay [1]: Inhibition of trypsin.
Another assay has as its target Prothrombin (Homo sapiens, UniProt P00734). In words: Inhibition of thrombin.

Chain of Plasminogen (P00747 97-580 limits assumed): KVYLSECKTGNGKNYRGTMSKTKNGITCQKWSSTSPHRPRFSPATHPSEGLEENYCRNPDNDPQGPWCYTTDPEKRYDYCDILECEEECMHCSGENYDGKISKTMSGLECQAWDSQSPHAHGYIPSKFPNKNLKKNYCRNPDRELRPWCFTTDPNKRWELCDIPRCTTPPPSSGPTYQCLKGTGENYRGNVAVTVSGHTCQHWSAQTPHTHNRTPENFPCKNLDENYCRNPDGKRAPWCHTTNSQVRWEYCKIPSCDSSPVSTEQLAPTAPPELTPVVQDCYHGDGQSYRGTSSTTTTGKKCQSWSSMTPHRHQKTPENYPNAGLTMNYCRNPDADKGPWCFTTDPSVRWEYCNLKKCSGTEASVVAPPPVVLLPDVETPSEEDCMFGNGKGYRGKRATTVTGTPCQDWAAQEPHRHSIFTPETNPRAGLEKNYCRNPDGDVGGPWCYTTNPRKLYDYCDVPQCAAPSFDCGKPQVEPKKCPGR
Chain of Plasminogen (P00747 581-810 limits assumed): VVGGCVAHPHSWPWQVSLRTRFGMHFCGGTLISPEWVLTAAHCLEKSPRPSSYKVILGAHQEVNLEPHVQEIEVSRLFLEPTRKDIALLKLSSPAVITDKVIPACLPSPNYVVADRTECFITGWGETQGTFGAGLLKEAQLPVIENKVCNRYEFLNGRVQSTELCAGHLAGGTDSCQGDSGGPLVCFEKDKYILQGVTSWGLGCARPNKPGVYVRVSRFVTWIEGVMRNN

As for `CCO[C@@H]1[C@@H](NC(=O)C2CC3CCC(O)CC3N2C(=O)[C@@H](Cc2ccc(O)cc2)NC(=O)[C@H](O)Cc2ccc(O)cc2)CCCN1C(=N)N` (stereo partly drawn), the figures for the pIC50 on Plasminogen and at Prothrombin were 4.00 and 4.88, respectively. For the same compound, in assay [1], the half-inhibitory concentration (IC50) was 51 µg/mL (≈ 74.9 µM).

What is called pIC50 is the IC50 on a negative log10 scale, so that one unit is a factor of ten. A higher pIC50 goes with a small IC50. Broadly, the IC50 is the point on the concentration scale where inhibition reaches its midpoint. Low values mean higher potency, high ones lower potency.
